Reference: US10633348B2, “Methods to treat lymphoplasmacytic lymphoma” (Dana-Farber Cancer Institute, Inc., priority 2013, dated 2020)

What was measured:
[1] = test system: BTK-pY223; experiment: PhosFlow; type: cell-based; details: BCWM.1, Hck-wt and Hck-mu BCWM.1 cells; 0.5 μM and 0.1 μM
Procedure: PhosFlow was performed to detect levels of phosphorylation for BTK-pY223 (BD Biosciences) and Hck-pY410 (Abcam) in BCWM.1 cells, in BCWM cells that stably overexpress HCK (BCWM.1_HCK-wt) and in BCWM.1 cells that stably overexpress the T338M mutant of HCK (BCWM.1_HCK-mu). Cells were fixed with BD Phosflow Fix Buffer I (BD Biosciences) at 37° C. for 10 min, then washed twice with BD Phosflow Perm/Wash Buffer I (BD Biosciences). Cells were suspended in BD Phosflow Perm/Wash Buffer I at 10 million/ml and antibodies aliquoted to flow tubes with 100 μl cells. Cells were incubated at room temperature for 30 min in the dark. Cells were washed twice with BD Phosflow Perm/Wash Buffer I before performing flow analysis using a BD™ FACSCanto II flow cytometer.

[2] = test system: Hck-pY410; experiment: PhosFlow; type: cell-based; details: BCWM.1, Hck-wt and Hck-mu BCWM.1 cells; 0.5 μM and 0.1 μM
[3] = test system: ZAK; type: cell-based
[4] = test system: Abl; experiment: KiNativ kinase profiling in A375 cells; type: cell-based; details: 1 μM; A375 cells
[5] = test system: LYN; type: cell-based
[6] = test system: BTK; type: biochemical
From the text: (§1) The in vitro activity of the compounds described herein in inhibiting TAK1, HCK and other kinases were obtained using an Invitrogen Select Screening assay as known in the art. The IC50 values determined from this assay are shown below.

[7] = test system: WM patient primary lymphoplasmacytic cells (LPCs); experiment: Apoptosis analysis (Annexin V/Propidium iodide); type: cell-based; details: for Apoptosis (%): 24 hours
Procedure: WM cells were treated with and without the compounds described herein. Cells were incubated at 37° C. with 0.01˜4 uM of the compounds described herein. Apoptosis analysis was performed using Annexin V/Propidium iodide staining with the Apoptosis Detection Kit I (BD Pharmingen). 1×10^6/well cells were treated in 24 well plates for ˜24 hours with inhibitors or corresponding controls. A minimum of 10,000 events were acquired using a BD™ FACSCanto II flow cytometer and analyzed with BD FACS DIVA Software.
Apoptosis analysis of WM patient primary lymphoplasmacytic cells (LPCs) was preformed following A-5 and A-14 treatment of Bone marrow mononuclear cells (BMMC) from WM patients for 24 hours. Apoptosis analysis was performed using Annexin V/Propidium iodide staining with the Apoptosis Detection Kit I (BD Pharmingen) in CD19-APC-cy7 antibody (BD Pharmingen) gated LPCs population.

[8] = test system: FYN; experiment: KiNativ kinase profiling in A375 cells; type: cell-based; details: 1 μM; A375 cells
[9] = test system: BCWM.1; experiment: CellTiter-Glo cell viability assay; type: cell-based
Procedure: (§2) CellTiter-Glo® Luminescent cell viability assay (Promega) was used to assess cell survival following treatment with the compounds described. Cells were seeded into 384 well plates with the EL406 Combination Washer Dispenser (BioTek Instruments, Inc.) and the compounds were injected into the cells culture media with the JANUS Automated Workstation (PerkinElmer Inc.). Cells were treated with a series diluted inhibitors (20˜0.04 μM) for 72 hours at 37° C. Luminescent measurement is performed using the 2104 Envision® Multilabel Reader (PerkinElmer Inc.).

[10] = test system: OCI-Ly3; experiment: CellTiter-Glo cell viability assay; type: cell-based; details: Homo sapiens, OCI-Ly3, 72 h
Procedure: as §2

[11] = test system: OCI-Ly7; experiment: CellTiter-Glo cell viability assay; type: cell-based; details: Homo sapiens, 72 hours
Procedure: as §2

[12] = test system: TMD8; experiment: CellTiter-Glo cell viability assay; type: cell-based; details: Homo sapiens, 72 hours
Procedure: as §2

[13] = Isobolograms, synergy with a BTK inhibitor; details: FIG. 1
From the text: Points below the 1 to 1 line connecting the X and Y axes are ‘synergistic’, points near the line are ‘additive’, and points above it are antagonistic.

[14] = test system: OCI-Ly19; experiment: CellTiter-Glo cell viability assay; type: cell-based; details: Homo sapiens, OCI-LY19, 72 h
Procedure: as §2

[15] = test system: MWCL-1; experiment: CellTiter-Glo cell viability assay; type: cell-based; details: 72 h
Procedure: as §2

[16] = test system: Ramos; experiment: CellTiter-Glo cell viability assay; type: cell-based; details: Homo sapiens, 72 h
Procedure: as §2

[17] = test system: TAK1; type: biochemical
[18] = test system: HCK; type: biochemical; details: read-out: HCK IC50 (nM) Inv
From the text: as §1

## CCN1CCN(Cc2ccc(NC(=O)c3ccc(C)c(Oc4cc(Nc5cnn(C)c5)ncn4)c3)cc2C(F)(F)F)CC1 [(A-5), N-(4-((4-ethylpiperazin-1-yl)methyl)-3-(trifluoromethyl)phenyl)-4-methyl-3-((6-((1-methyl-1H-pyrazol-4-yl)amino)pyrimidin-4-yl)oxy)benzamide]
[1]
  BTK phosphorylation: inhibit
[2]
  Hck phosphorylation: inhibit
[3]
  ZAK inhibition: 75.7%
[4]
  Abl inhibition: > 90%
[5]
  LYN inhibition: 87.8%
[6]
  IC50: > 10000 nM
[7]; Patient 1, 1.0 μM
  Apoptosis (%): 57.7%
[7]; Patient 2, 1.0 μM
  Apoptosis (%): 28.9%
[7]; Patient 3, 1.0 μM
  Apoptosis (%): 29.48%
[7]; Patient 4, 1.0 μM
  Apoptosis (%): 48.56%
[7]; Patient 5, 0.5 μM
  Apoptosis (%): 23.25%
[7]; Patient 5, 1.0 μM
  Apoptosis (%): 30.5%
[7]; Patient 6, 1.0 μM
  Apoptosis (%): 17.82%
[7]; Patient 7, 0.5 μM
  Apoptosis (%): 17.23%
[7]; Patient 7, 1.0 μM
  Apoptosis (%): 18.2%
[7]; Patient 8, 0.5 μM
  Apoptosis (%): 11.04%
[7]; Patient 8, 1.0 μM
  Apoptosis (%): 17.31%
[7]; Patient 10, 0.2 μM
  Apoptosis (%): 21.5%
[7]; Patient 10, 1.0 μM
  Apoptosis (%): 28.7%
[7]; Patient 11, 0.2 μM
  Apoptosis (%): 30.2%
[7]; Patient 11, 1.0 μM
  Apoptosis (%): 47%
[7]; WM patient primary LPCs
  apoptosis compared with DMSO control: induced significant apoptosis
[8]
  FYN inhibition: 71.2%
[9]; 72 hours
  EC50: 72 nM
[9]; BCWM1, 72 h
  EC50: 51 nM
[10]
  EC50: 4710 nM
[11]
  EC50: 655 nM
[12]
  EC50: 132 nM

## C=CC(=O)Nc1cc(Oc2cc(C(=O)Nc3ccc(CN4CCN(CC)CC4)c(C(F)(F)F)c3)ccc2C)ncn1 [(A-17), 3-((6-acrylamidopyrimidin-4-yl)oxy)-N-(4-((4-ethylpiperazin-1-yl)methyl)-3-(trifluoromethyl)phenyl)-4-methylbenzamide]
[13]
  synergy between compound and a BTK inhibitor (isobolograms): synergy
[6]
  IC50: 3380 nM
[9]; BCWM1, 72 h
  EC50: 8 nM
[10]
  EC50: 247 nM
[14]
  EC50: 188 nM
[15]
  EC50: 202 nM
[16]
  EC50: 389 nM

## CCN1CCN(Cc2ccc(NC(=O)c3ccc(C)c(Oc4cc(Nc5cncnc5)ncn4)c3)cc2C(F)(F)F)CC1 [(A-8), N-(4-((4-ethylpiperazin-1-yl)methyl)-3-(trifluoromethyl)phenyl)-4-methyl-3-((6-(pyrimidin-5-ylamino)pyrimidin-4-yl)oxy)benzamide]
[17]
  IC50: 487 nM
[18]
  IC50: 889 nM
